The source of these data is paper PMC5734772, “Characterization of CobB kinetics and inhibition by nicotinamide” (PLoS ONE, 2017).

The target of one data set is T1, nicotinamidase (PncA) (Escherichia coli, UniProt P21369).
T1 construct: recombinant His6-tagged nicotinamidase
Briefly: activity of purified PncA after […] min incubation with […] inhibitor at […]°C; activity undetectable. The class given is biochemical.

For a further data set, the target named is T2, CobB (Escherichia coli, UniProt P75960).
T2 construct: recombinant CobB, MBP tag cleaved
T2 sequence (P75960 1-279): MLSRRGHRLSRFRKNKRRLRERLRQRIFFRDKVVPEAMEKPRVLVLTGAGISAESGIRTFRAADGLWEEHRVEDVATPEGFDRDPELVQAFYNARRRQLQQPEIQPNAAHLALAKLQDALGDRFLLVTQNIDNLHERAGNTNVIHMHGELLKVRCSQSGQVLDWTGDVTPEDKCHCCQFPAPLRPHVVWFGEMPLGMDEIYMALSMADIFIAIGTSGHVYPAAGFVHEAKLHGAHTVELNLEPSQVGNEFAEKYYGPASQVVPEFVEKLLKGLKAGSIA
Briefly: deacetylation of acetylated Acs by purified CobB at varied NAM and NAD+; Dixon and double-reciprocal plots (Ki approximately […]). The class given is biochemical.

Substrate in the data set “purified protein”: NC(=O)c1cccnc1
Briefly: purified protein. The data set is classed as biochemical, Escherichia coli.

Usually IC50 stands for the midpoint of a concentration-inhibition curve. As usually defined, the Km is the substrate concentration at which the rate is half of its maximum.

Take `O=Cc1cccnc1` [3-pyridinecarboxaldehide]: the “activity of purified PncA after 10 min incubation with 1 mM inhibitor at 37°C; a” value on nicotinamidase (PncA) is “This result confirms PncA inhibition by 3-pyridinecarbonitrile and 3-pyridinecarboxaldehide in vitro”.

For the molecule `NC(=O)c1cccnc1` [nicotinamide], the IC50 against CobB is around 52 µM.

With `N#Cc1cccnc1` [3-pyridinecarbonitrile], on nicotinamidase (PncA), the “activity of purified PncA after 10 min incubation with 1 mM inhibitor at 37°C; a” value is “This result confirms PncA inhibition by 3-pyridinecarbonitrile and 3-pyridinecarboxaldehide in vitro”.

B1: nicotinamidase (PncA) (Escherichia coli K-12) (protein)
chain: MPPRALLLVDLQNDFCAGGALAVPEGDSTVDVANRLIDWCQSRGEAVIASQDWHPANHGSFASQHGVEPYTPGQLDGLPQTFWPDHCVQNSEGAQLHPLLHQKAIAAVFHKGENPLVDSYSAFFDNGRRQKTSLDDWLRDHEIDELIVMGLATDYCVKFTVLDALQLGYKVNVITDGCRGVNIQPQDSAHAFMEMSAAGATLYTLADWEETQG
notes: recombinant His6-tagged nicotinamidase
Turning to B1, in “purified protein”, the Km stood at 175 ± 27 µM.
